Reference: patent US6669951B2, “Compositions and methods for enhancing drug delivery across and into epithelial tissues” (CellGate, Inc., priority 1999, dated 2003)
Peptide text beside a SMILES is read from it. * marks the point of attachment. FITC = O=C1OC2(c3ccc(O)cc3Oc3cc(O)ccc32)c2ccc(NC(=S)*)cc21; Ahx = NCCCCCC(=O)O

How the values were obtained:
skin of nude mice = experiment: Penetration of biotinylated conjugates into skin of nude mice (streptavidin staining); settings: 1 mM-100 μM in PBS, nude mice, thirty, sixty, 120 minutes
Description: Samples (100 μl) were applied as a liquid without excipient, prevented from dispersing by a Vaseline™ barrier, and allowed to penetrate for fifteen minutes. At the end of this period the animal was sacrificed, the relevant sections of skin were excised, embedded in mounting medium (OCT), and frozen. Frozen sections (5 microns) were cut using a cryostat, collected on slides, and stained with fluorescently labeled streptavidin (Vector Laboratories, Burlingame, Calif.). The slides were fixed in acetone at 4° C. for ten minutes, air dried, soaked in PBS for five minutes, blocked with normal goat serum for five minutes, and washed with PBS for five minutes. The section was stained by incubation with fluorescently labeled streptavidin at 30 μg/ml for thirty minutes, washed with PBS, counterstained with propidium iodide (1 μg/ml) for two minutes, and the section was mounted with Vectashield™ mounting media. Slides were analyzed by fluorescent microscopy. Parallel studies were done using streptavidin-horse radish peroxidase rather than fluorescein-streptavidin. The biotinylated peptide was visualized by treatment of the sections with the horseradish peroxidase substrate diaminobenzadine, and visualization with light microscopy.
Alternatively, sample (100 μl) was applied as a liquid without excipient and prevented from evaporating by wrapping plastic wrap over the sample sealed with Vaseline™. […] At the end of this period animal was sacrificed, the relevant section of skin was excised, embedded in mounting medium (OCT) and frozen. […] Slides were analyzed by fluorescent microscopy.
At the end of this period animal was sacrificed, the relevant section of skin was excised, embedded in mounting medium (OCT) and frozen. […] Slides were analyzed by fluorescent microscopy
(§1) At the end of this period animal was sacrificed, the relevant section of skin was excised, embedded in mounting medium (OCT) and frozen. […] Slides were analyzed by fluorescent microscopy.
as §1

Jurkat cells [1] = experiment: FACS cellular uptake assay; assay type: cell-based, human; settings: for additional loss of intracellular fluorescence from the one amino acid truncated analogs: further deletion of one residue; for cellular uptake relative to Tat49-57: Jurkat cells, 2% FCS
Description: (§2) The accuracy of this method for determining concentration was established by weighing selected samples and dissolving them in a known amount of PBS buffer. The concentrations determined by UV spectroscopy correlated with the amounts weighed out manually. Jurkat cells (human T cell line), murine B cells (CH27), or human PBL cells were grown in 10% fetal calf serum and DMEM and each of these were used for cellular uptake experiments. […] The microtiter plates were centrifuged and the cells were isolated, washed with cold PBS (3×250 μL), incubated with 0.05% trypsin/0.53 mM EDTA at 37° C. for 5 min, washed with cold PBS, and resuspended in PBS containing 0.1% propidium iodide. The cells were analyzed using fluorescent flow cytometry (FACScan, Becton Dickinson) and cells staining with propidium iodide were excluded from the analysis. The data presented is the mean fluorescent signal for the 5000 cells collected.
Inhibition of Cellular Uptake with Sodium Azide. The assays were performed as previously described with the exception that the cells used were preincubated for 30 min with 0.5% sodium azide in 2% FCS/PBS buffer prior to the addition of fluorescent peptides and the cells were washed with 0.5% sodium azide in PBS buffer. All of the cellular uptake assays were run in parallel in the presence and absence of sodium azide.
To determine the structural requirements for the cellular uptake of short arginine-rich peptides, a series of fluorescently-labeled truncated analogues of Tat49-57 were synthesized using standard solid-phase chemistry. See, e.g., Atherton, E. et al. SOLID-PHASE PEPTIDE […] (IRL: Oxford, Engl. 1989). A fluorescein moiety was attached via an aminohexanoic acid spacer on the amino termini. The ability of these fluorescently labeled peptides to enter Jurkat cells was then analyzed using fluorescent activated cell sorting (FACS). The peptide constructs tested were Tat49-57 (Fl-ahx-[…]; SEQ ID NO:8): Tat49-56 (Fl-ahx-[…]; SEQ ID NO:9), Tat49-55 (Fl-ahx-RKKRRQR; SEQ ID NO: 10), Tat50-57 (Fl-ahx-[…]; SEQ ID NO: 11), and Tat51-57 (Fl-ahx-KRRQRRR; SEQ ID NO: 12). Differentiation between cell surface binding and internalization was accomplished throughout by running a parallel set of assays in the presence and absence of sodium azide. Because sodium azide inhibits energy-dependent cellular uptake but not cell surface binding, the difference in fluorescence between the two assays provided the amount of fluorescence resulting from internalization.

Jurkat cells [2] = experiment: Cellular uptake kinetics assay (Michaelis-Menton); assay type: cell-based, human; parameters: Vmax: unit not given here; settings: for Km / Vmax / rate of entering cells, fold faster than Tat47-59: Jurkat cells; for Km / Vmax: incubation 30, 60, 120, 240 seconds, 3° C.; for rate of entering cells, fold faster than Tat47-59: from Km values
Description: as §2
Cellular Uptake Kinetics Assay. The assays were performed as previously described except the cells were incubated for 0.5, 1, 2, and 4 min at 4° C. in triplicate in 2% FCS/PBS (50 μl) in microtiter plates (96 well). The reactions were quenched by diluting the samples into 2% FCS/PBS (5 mL). The assays were then worked up and analyzed by fluorescent flow cytometry as previously described.
The rates of cellular uptake were determined after incubation (3° C.) of the peptides in Jurkat cells for 30, 60, 120, and 240 seconds (Table 1).

[3] = tested on: ear inflammation in Balb/c mice; experiment: Murine contact dermatitis (DNFB), ear inflammation; assay type: in vivo, mouse
Description: Balb/c (6-7 weeks) mice were painted on the abdomen with 100 μl of 0.7% DNFB in acetone olive oil (95:5). Three days later both ears of the animals were restimulated with 0.5% DNFB in acetone. […] Ear inflammation was measured 24 hours after restimulation using a spring loaded caliper. The percent reduction of inflammation was calculated using the following formula […], where t=thickness of the treated ear, n=the thickness of a normal untreated ear, and u=thickness of an inflamed ear without any treatment. N=20 animals in each group.

CC(=O)O[C@H]1C(=O)[C@@]2(C)[C@H]([C@H](OC(=O)c3ccccc3)[C@]3(O)C[C@H](OC(=O)[C@H](OC(=O)NCCCC[C@H](NC(=O)[C@@H](CCCNC(=N)N)NC(=O)[C@@H](CCCNC(=N)N)NC(=O)[C@@H](CCCNC(=N)N)NC(=O)[C@@H](CCCNC(=N)N)NC(=O)[C@@H](CCCNC(=N)N)NC(=O)[C@@H](CCCNC(=N)N)NC(=O)[C@@H](CCCNC(=N)N)NC(=O)[C@@H](CCCNC(=N)N)NC(=O)[C@@H](CCCNC(=N)N)NC(=O)CCCCCNC(=O)CCCC[C@@H]4SC[C@@H]5NC(=O)N[C@@H]54)C(N)=O)[C@@H](NC(=O)c4ccccc4)c4ccccc4)C(C)=C1C3(C)C)[C@]1(OC(C)=O)CO[C@@H]1C[C@@H]2O [B-aca-r9-K-taxol]
penetration of drug conjugates into skin (skin of nude mice): effectively entered into and across the epidermis and into the dermis of the skin of nude mice

N=C(N)NCCC[C@H](NC(=O)[C@H](CCCNC(=N)N)NC(=O)[C@H](CCCNC(=N)N)NC(=O)[C@H](CCC(N)=O)NC(=O)[C@H](CCCNC(=N)N)NC(=O)[C@H](CCCNC(=N)N)NC(=O)[C@H](CCCCN)NC(=O)CCCCCNC(=S)Nc1ccc2c(c1)C(=O)OC21c2ccc(O)cc2Oc2cc(O)ccc21)C(N)=O [Tat51-57, Fl-ahx-KRRQRRR] ({FITC-Ahx}-KRRQRRR-NH2)
additional loss of intracellular fluorescence from the one amino acid truncated analogs (Jurkat cells [1]): did not further diminish the amount of internalization

CC[C@H](C)[C@H](NC(=O)[C@H](CCCCN)NC(=O)[C@@H](NC(=O)[C@H](CCC(N)=O)NC(=O)[C@H](CCCNC(=N)N)NC(=O)CCCCCNC(=S)Nc1ccc2c(c1)C(=O)OC21c2ccc(O)cc2Oc2cc(O)ccc21)[C@@H](C)CC)C(=O)N[C@@H](Cc1c[nH]c2ccccc12)C(=O)N[C@@H](Cc1ccccc1)C(=O)N[C@@H](CCC(N)=O)C(=O)N[C@@H](CC(N)=O)C(=O)N[C@@H](CCCNC(=N)N)C(=O)N[C@@H](CCCNC(=N)N)C(=O)N[C@@H](CCSC)C(=O)N[C@@H](CCCCN)C(=O)N[C@@H](Cc1c[nH]c2ccccc12)C(=O)N[C@@H](CCCCN)C(=O)N[C@@H](CCCCN)C(N)=O [Antennapedia43-58, reference compound]
Km (Jurkat cells [2]): 427 µM
Vmax (Jurkat cells [2]): 0.41
rate of entering cells, fold faster than Tat47-59 (Jurkat cells [2]): approximately 2 fold

C[C@H](NC(=O)[C@H](CCCNC(=N)N)NC(=O)[C@H](CCCNC(=N)N)NC(=O)[C@H](CCCCN)NC(=O)[C@H](CCCCN)NC(=O)[C@H](CCCNC(=N)N)NC(=O)CCCCCNC(=S)Nc1ccc2c(c1)C(=O)OC21c2ccc(O)cc2Oc2cc(O)ccc21)C(=O)N[C@@H](CCCNC(=N)N)C(=O)N[C@@H](CCCNC(=N)N)C(=O)N[C@@H](CCCNC(=N)N)C(N)=O [A-54] ({FITC-Ahx}-RKKRRARRR-NH2)
cellular uptake relative to Tat49-57 (Jurkat cells [1]): modest decrease in cellular internalization

N=C(N)NCCC[C@@H](NC(=O)[C@@H](CCCCN)NC(=O)[C@@H](CCCCN)NC(=O)[C@@H](CCCNC(=N)N)NC(=O)[C@@H](CCCNC(=N)N)NC(=O)[C@@H](CCC(N)=O)NC(=O)[C@@H](CCCNC(=N)N)NC(=O)[C@@H](CCCNC(=N)N)NC(=O)[C@@H](CCCNC(=N)N)NC(=O)CCCCCNC(=S)Nc1ccc2c(c1)C(=O)OC21c2ccc(O)cc2Oc2cc(O)ccc21)C(N)=O [d-Tat57-49, F1-ahx-rrrqrrkkr]
cellular uptake relative to Tat49-57 (Jurkat cells [1]): more effective at entering Jurkat cells then Tat49-57

R7 (SEQ ID NO:3): heptamer that consists of L-arginine residues; SEQ ID NO:3 (RRRRRRR)
reduction in ear inflammation ([3]; 1% topical, 1, 5 and 20 h after restimulation, measured 24 hours): No reduction of inflammation was observed

N=C(N)NCCC[C@@H](NC(=O)[C@@H](CCCNC(=N)N)NC(=O)[C@@H](CCCNC(=N)N)NC(=O)[C@@H](CCC(N)=O)NC(=O)[C@@H](CCCNC(=N)N)NC(=O)[C@@H](CCCNC(=N)N)NC(=O)[C@@H](CCCCN)NC(=O)[C@@H](CCCCN)NC(=O)[C@@H](CCCNC(=N)N)NC(=O)CCCCCNC(=S)Nc1ccc2c(c1)C(=O)OC21c2ccc(O)cc2Oc2cc(O)ccc21)C(N)=O [d-Tat49-57, F1-ahx-rkkrrqrrr]
cellular uptake relative to Tat49-57 (Jurkat cells [1]): more effective at entering Jurkat cells then Tat49-57

N=C(N)NCCC[C@H](NC(=O)[C@H](CCCCN)NC(=O)[C@H](CCCCN)NC(=O)[C@H](CCCNC(=N)N)NC(=O)[C@H](CCCNC(=N)N)NC(=O)[C@H](CCC(N)=O)NC(=O)[C@H](CCCNC(=N)N)NC(=O)[C@H](CCCNC(=N)N)NC(=O)[C@H](CCCNC(=N)N)NC(=O)CCCCCNC(=S)Nc1ccc2c(c1)C(=O)OC21c2ccc(O)cc2Oc2cc(O)ccc21)C(N)=O [Tat57-49]
cellular uptake relative to Tat49-57 (Jurkat cells [1]): more effective at entering Jurkat cells then Tat49-57

N=C(N)NCCC[C@H](NC(=O)[C@H](CCCNC(=N)N)NC(=O)[C@H](CCCNC(=N)N)NC(=O)[C@H](CCC(N)=O)NC(=O)[C@H](CCCNC(=N)N)NC(=O)[C@H](CCCNC(=N)N)NC(=O)[C@H](CCCCN)NC(=O)[C@H](CCCCN)NC(=O)[C@H](CCCNC(=N)N)NC(=O)CCCCCNC(=S)Nc1ccc2c(c1)C(=O)OC21c2ccc(O)cc2Oc2cc(O)ccc21)C(N)=O [Tat49-57, reference compound]
Km (Jurkat cells [2]): 770 µM
Vmax (Jurkat cells [2]): 0.38
cellular uptake relative to Tat49-57 (Jurkat cells [1]): between that of R6 and R7

N=C(N)NCCC[C@H](NC(=O)[C@H](CCCNC(=N)N)NC(=O)[C@H](CCCNC(=N)N)NC(=O)[C@H](CCCNC(=N)N)NC(=O)[C@H](CCCNC(=N)N)NC(=O)[C@H](CCCNC(=N)N)NC(=O)[C@H](CCCNC(=N)N)NC(=O)[C@H](CCCNC(=N)N)NC(=O)[C@H](CCCNC(=N)N)NC(=O)CCCCCNC(=S)Nc1ccc2c(c1)C(=O)OC21c2ccc(O)cc2Oc2cc(O)ccc21)C(N)=O (single isomer, unassigned) [R9]
Km values fold greater / fold better than Tat49-57 (Jurkat cells [2]; Discussion): 30 fold
Km (Jurkat cells [2]): 44 µM
Vmax (Jurkat cells [2]): 0.37
rate of entering cells, fold faster than Tat47-59 (Jurkat cells [2]): ~20 fold

CC1(C)O[C@@H]2C[C@H]3[C@@H]4CCC5=CC(=O)C=C[C@]5(C)[C@@]4(F)[C@@H](O)C[C@]3(C)[C@]2(C(=O)CO)O1 [triamcinolone acetonide, reference compound]
reduction in ear inflammation ([3]; 0.1% topical): 34.1%±6.3

N=C(N)NCCC[C@H](NC(=O)[C@H](CCC(N)=O)NC(=O)[C@H](CCCNC(=N)N)NC(=O)[C@H](CCCNC(=N)N)NC(=O)[C@H](CCCCN)NC(=O)[C@H](CCCCN)NC(=O)[C@H](CCCNC(=N)N)NC(=O)CCCCCNC(=S)Nc1ccc2c(c1)C(=O)OC21c2ccc(O)cc2Oc2cc(O)ccc21)C(N)=O [Tat49-55, Fl-ahx-RKKRRQR] ({FITC-Ahx}-RKKRRQR-NH2)
additional loss of intracellular fluorescence from the one amino acid truncated analogs (Jurkat cells [1]): 60%
